pEC50: −log10 of the molar value.
Experiments:
TFEB = TFEB nuclear translocation assay; format: cell-based; settings: Homo sapiens; HeLa wt or HeLa TRPML1 KO cells, treated for 2 hrs; ratio of nuclear to ring-region TFEB intensity
In short: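 HeLa wild-type or TRPML1 KO cells treated 2 h with compound at 37 °C, PFA-fixed, immunostained for TFEB (Alexa 488) with Hoechst nuclei. Imaged at ×20, four fields/well. Value is ratio of nuclear to perinuclear-ring TFEB intensity, with nuclei counts.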

THP-1 cells = experiment: Lamp1 lysosomal exocytosis assay; format: cell-based; settings: Homo sapiens, 55 min, 55 min incubation, top dose 20 μM
In short: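 THP-1 cells (1e5/well) exposed to a 7-point 3-fold compound series, top final 20 μM, for 55 min at 37°C. Surface Lamp1 then stained with Lamp1-PE on ice in buffer containing 80 μM Dynasore, and read by flow cytometry as PE geometric mean on live, sytox-negative singlets.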

pEC50 (TFEB) | pEC50 (THP-1 cells) | Structure (SMILES)
5.10 to 5.70 | ≤ 5.30 | O=C(OCc1ccccc1)N1CCC2(C1)CN(S(=O)(=O)c1ccc(C(F)F)cc1)c1ccccc12 (stereo not drawn) [Compound I-91, benzyl 1-[4-(difluoromethyl)benzenesulfonyl]-1,2-dihydrospiro[indole-3,3′-pyrrolidine]-1′-carboxylate]
≥ 5.70 | ≤ 5.30 | CC1(C)COc2ccc(S(=O)(=O)N3CC4(CCCCC4)c4ccccc43)cc21 [Compound I-94, 1′-[(3,3-dimethyl-2,3-dihydro-1-benzofuran-5-yl)sulfonyl]-1′,2′-dihydrospiro[cyclohexane-1,3′-indole]]
≤ 5.00 | ≤ 5.30 | CN(C(=O)N1CC2(CCN(C(=O)OCc3ccccc3)CC2)c2ccccc21)c1ccc(C(F)F)cc1 [Compound I-248, benzyl 1-((4-(difluoromethyl)phenyl)(methyl)carbamoyl)spiro[indoline-3,4′-piperidine]-1′-carboxylate]
≥ 5.70 | ≥ 6.30 | CS(=O)(=O)c1ccc(S(=O)(=O)N2CC3(CCN(C(=O)OCc4ccccc4)CC3)c3ccccc32)cc1 [Compound I-180]
5.10 to 5.70 | ≤ 5.30 | O=C(Nc1cccc(C(F)F)c1)N1CCC2(CC1)CN(S(=O)(=O)c1ccc(C(F)F)cc1)c1ccccc12 [Compound I-221, N-(3-(difluoromethyl)phenyl)-1-((4-(difluoromethyl)phenyl)sulfonyl)spiro[indoline-3,4′-piperidine]-1′-carboxamide]
≤ 5.00 | ≤ 5.30 | CN(C)S(=O)(=O)c1ccc(S(=O)(=O)N2CC3(CCN(C(=O)OCC4CC4)CC3)n3nccc32)cc1 [Compound I-145, cyclopropylmethyl 1′-[4-(dimethylsulfamoyl)benzenesulfonyl]-1′,2′-dihydrospiro[piperidine-4,3′-pyrazolo[1,5-a]imidazole]-1-carboxylate]
5.10 to 5.70 | ≤ 5.30 | O=S(=O)(c1ccc2c(c1)CCC2)N1CC2(CCCC2)c2ccccc21 [Compound I-67, 1′-((2,3-dihydro-1H-inden-5-yl)sulfonyl)spiro[cyclopentane-1,3′-indoline]]
5.10 to 5.70 | ≤ 5.30 | CC1(C)Oc2ccc(S(=O)(=O)N3CC4(CCCC4)c4ccccc43)cc2O1 [Compound I-57, 1′-[(2,2-dimethyl-2H-1,3-benzodioxol-5-yl)sulfony1]-1′,2′-dihydrospiro[cyclopentane-1,3′-indole]]
≤ 5.00 | ≤ 5.30 | Cc1cc2n(n1)C1(CCCCC1)CN2S(=O)(=O)c1ccc(C(F)F)cc1 [Compound I-148, 1′-[4-(difluoromethyl)benzenesulfonyl]-6′-methyl-1′,2′-dihydrospiro[cyclohexane-1,3′-pyrazolo[1,5-a]imidazole]]
≥ 5.70 | 5.30 to 6.00 | COC1CCC2(CC1)CN(S(=O)(=O)c1ccc(S(=O)(=O)N(C)C)cc1)c1ccccc12 (stereo not drawn) [Compound I-119, 4-({4-methoxy-1′,2′-dihydrospiro[cyclohexane-1,3′-indol]-1′-yl}sulfonyl)-N,N-dimethylbenzene-1-sulfonamide]
≥ 5.70 | ≥ 6.30 | CC1(C)Cc2cc(S(=O)(=O)N3CC4(CCN(C(=O)OCc5ccccc5)CC4)c4ccccc43)ccc2O1 [Compound I-189, benzyl 1-((2,2-dimethyl-2,3-dihydrobenzofuran-5-yl)sulfonyl)spiro[indoline-3,4′-piperidine]-1′-carboxylate]
≥ 5.70 | ≥ 6.30 | CC(C)OC(=O)N1CCC2(CC1)CN(S(=O)(=O)c1ccc(C(F)F)cc1)c1ccccc12 [Compound I-160, propan-2-yl 1-[4-(difluoromethyl)benzenesulfonyl]-1,2-dihydrospiro[indole-3,4′-piperidine]-1′-carboxylate]
5.10 to 5.70 | 5.30 to 6.00 | CN(C)S(=O)(=O)c1ccc(S(=O)(=O)N2CC3(CCCC3)c3ccncc32)cc1 [Compound I-127, 4-({1′,2′-dihydrospiro[cyclopentane-1,3′-pyrrolo[2,3-c]pyridin]-1′-yl}sulfonyl)-N,N-dimethylbenzene-1-sulfonamide]
≥ 5.70 | ≤ 5.30 | CN(C(=O)C1CCC2(CC1)CN(S(=O)(=O)c1ccc(C(F)F)cc1)c1ccccc12)c1ccccc1 (stereo not drawn) [Compound I-234, 1′-((4-(difluoromethyl)phenyl)sulfonyl)-N-methyl-N-phenylspiro[cyclohexane-1,3′-indoline]-4-carboxamide]
≥ 5.70 | ≥ 6.30 | CN(C)S(=O)(=O)c1ccc(S(=O)(=O)N2CC3(CCCC3)c3ccccc32)cc1 [Compound I-68, 4-({1′,2′-dihydrospiro[cyclopentane-1,3′-indol]-1′-yl}sulfonyl)-N,N-dimethylbenzene-1-sulfonamide]
5.10 to 5.70 | ≤ 5.30 | O=C(OCc1ccccc1)N1CCC2(CC1)CN(C(=O)C1(c3ccccc3)CC1)c1ccccc12 [Compound I-191, benzyl 1-(1-phenylcyclopropanecarbonyl)-1,2-dihydrospiro[indole-3,4′-piperidine]-1′-carboxylate]
≤ 5.00 | ≤ 5.30 | O=C(Nc1ccc2c(c1)OCCO2)N1CCC2(CC1)CN(S(=O)(=O)c1ccc(C(F)F)cc1)c1ccccc12 [Compound I-225, 1-((4-(difluoromethyl)phenyl)sulfonyl)-N-(2,3-dihydrobenzo[b][1,4]dioxin-6-yl)spiro[indoline-3,4′-piperidine]-1′-carboxamide]

Second part, the molecule before the results:

Structure (SMILES) | pEC50 (TFEB) | pEC50 (THP-1 cells)
CN(C)S(=O)(=O)c1ccc(S(=O)(=O)N2CC3(CCN(C(=O)C(C)(C)C)CC3)c3ccccc32)cc1 [Compound I-118, 4-{[1′-(2,2-dimethylpropanoyl)-1,2-dihydrospiro[indole-3,4′-piperidin]-1-yl]sulfonyl}-N,N-dimethylbenzene-1-sulfonamide] | ≥ 5.70 | 5.30 to 6.00
O=C(OCc1ccccc1)N1CCC2(CC1)CN(S(=O)(=O)Cc1ccc(C(F)F)cc1)c1ccccc12 [Compound I-250, benzyl 1-((4-(difluoromethyl)benzyl)sulfonyl)spiro[indoline-3,4′-piperidine]-1′-carboxylate] | ≥ 5.70 | ≥ 6.30
O=C(Nc1ccc2c(c1)CCO2)N1CCC2(CC1)CN(S(=O)(=O)c1ccc(C(F)F)cc1)c1ccccc12 [Compound I-219, 1-((4-(difluoromethyl)phenyl)sulfonyl)-N-(2,3-dihydrobenzofuran-5-yl)spiro[indoline-3,4′-piperidine]-1′-carboxamide] | ≤ 5.00 | ≤ 5.30
O=C(c1ccccc1)N1CCC2(CC1)CN(S(=O)(=O)c1ccc(C(F)F)cc1)c1ccccc12 [Compound I-161, 1′-benzoyl-1-[4-(difluoromethyl)benzenesulfonyl]-1,2-dihydrospiro[indole-3,4′-piperidine]] | 5.10 to 5.70 | 5.30 to 6.00
O=C(OCc1ccccc1)N1CCC2(CC1)CN(C(=O)Oc1ccc(C(F)F)cc1)c1ccccc12 [Compound I-249, 1′-benzyl 1-(4-(difluoromethyl)phenyl) spiro[indoline-3,4′-piperidine]-1,1′-dicarboxylate] | ≤ 5.00 | ≤ 5.30
Cc1ccc2c(c1)N(S(=O)(=O)c1ccc(S(=N)(=O)N(C)C)cc1)CC21CCCCC1 (stereo not drawn) [Compound I-149, N,N-dimethyl-4-({6′-methyl-1′,2′-dihydrospiro[cyclohexane-1,3′-indol]-1′-yl}sulfonyl)benzene-1-sulfonoimidamide] | ≥ 5.70 | ≥ 6.30
O=C(OCc1ccccc1)N1CCC2(CC1)CN(S(=O)(=O)c1ccc(C(F)F)cc1)c1cc(F)ccc12 [Compound I-131, benzyl 1-((4-(difluoromethyl)phenyl)sulfonyl)-6-fluorospiro[indoline-3,4′-piperidine]-1′-carboxylate] | ≥ 5.70 | ≤ 5.30
O=S(=O)(c1ccc(C(F)F)cc1)N1CC2(CCN(Cc3cccnc3)CC2)c2ccccc21 [Compound I-165, 1-[4-(difluoromethyl)benzenesulfonyl]-1′-[(pyridin-3-yl)methyl]-1,2-dihydrospiro[indole-3,4′-piperidine]] | 5.10 to 5.70 | ≤ 5.30
O=C(OCC1CC1)N1CCC2(CC1)CN(S(=O)(=O)c1ccc(C(F)F)cc1)c1ccccc12 [Compound I-170, cyclopropylmethyl 1-((4-(difluoromethyl)phenyl)sulfonyl)spiro[indoline-3,4′-piperidine]-1′-carboxylate] | ≥ 5.70 | 6.00 to 6.29
CC(C)S(=O)(=O)c1ccc(S(=O)(=O)N2CC3(CCN(C(=O)OCc4ccccc4)CC3)c3ccccc32)cc1 [Compound I-181, benzyl 1-[4-(propane-2-sulfonyl)benzenesulfonyl]-1,2-dihydrospiro[indole-3,4′-piperidine]-1′-carboxylate] | ≥ 5.70 | ≥ 6.30
O=S(=O)(c1ccc(C(F)F)cc1)N1CC2(CCN(CC(F)(F)F)CC2)c2ccccc21 [Compound I-86, 1-[4-(difluoromethyl)benzenesulfonyl]-1′-(2,2,2-trifluoroethyl)-1,2-dihydrospiro[indole-3,4′-piperidine]] | ≥ 5.70 | ≤ 5.30
CN(C)S(=O)(=O)c1ccc(S(=O)(=O)N2CC3(CCN(CC4CCOCC4)CC3)c3ccccc32)cc1 [Compound I-98, N,N-dimethyl-4-({1′-[(oxan-4-yl)methyl]-1,2-dihydrospiro[indole-3,4′-piperidin]-1-yl}sulfonyl)benzene-1-sulfonamide] | ≥ 5.70 | 5.30 to 6.00
O=C(OCc1ccccc1)N1CCC2(CC1)CN(S(=O)(=O)c1ccc(C(F)(F)F)nc1)c1ccccc12 [Compound I-187, benzyl 1-((6-(trifluoromethyl)pyridin-3-yl)sulfonyl)spiro[indoline-3,4′-piperidine]-1′-carboxylate] | ≥ 5.70 | 6.00 to 6.29

From patent US20230416262A1, “TRPML MODULATORS” (Casma Therapeutics, Inc., priority 2020, published 2023)
